Measurements reported in article PMC9609273 (Pharmaceuticals, 2022).
Like-named read-outs stand apart in the source and are kept apart here.

How the values were obtained:
[1] = tested on: inhA promoter mutant INH-resistant Mtb clinical isolate; format: cell-based, Mycobacterium tuberculosis
[2] = target: enoyl acyl carrier protein reductase (InhA) (Mycobacterium tuberculosis, UniProt P9WGR1); format: biochemical
[3] = tested on: katG S315T mutant INH-resistant Mtb clinical isolate; format: cell-based, Mycobacterium tuberculosis

Sequence of enoyl acyl carrier protein reductase (InhA) (P9WGR1 whole entry, looked up): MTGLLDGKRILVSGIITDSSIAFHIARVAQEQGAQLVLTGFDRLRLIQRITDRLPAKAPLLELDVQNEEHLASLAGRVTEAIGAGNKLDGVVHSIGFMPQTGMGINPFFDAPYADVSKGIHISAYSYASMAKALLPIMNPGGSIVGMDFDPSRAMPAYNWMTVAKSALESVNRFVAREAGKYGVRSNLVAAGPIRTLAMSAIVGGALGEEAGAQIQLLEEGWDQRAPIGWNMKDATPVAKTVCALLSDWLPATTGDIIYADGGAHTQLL

Molecule	MIC inhA + [1]	% Inhibition of InhA ([2]; 50 µM compound)	MIC katG + [3]	% Inhibition of InhA ([2]; 50 µM)
3-((2-Isonicotinoylhydrazono)methyl)phenyl 3-nitrobenzenesulfonate [SIH10]	3.12 µM	17%	12.5 µM	
3-((2-Isonicotinoylhydrazono)methyl)phenyl 4-methylbenzenesulfonate [SIH1]	1.56 µM	12%	50 µM	
NNC(=O)c1ccncc1 [Isoniazid, isonicotinic acid hydrazide, reference compound]	1.56 µM		6.25 µM	
3-((2-Isonicotinoylhydrazono)methyl)phenyl 4-methoxybenzenesulfonate [SIH4]	1.56 µM	5%	6.25 µM	
3-((2-Isonicotinoylhydrazono)methyl)phenyl 4-(tert-butyl)benzenesulfonate [SIH2]	1.56 µM	25%	25 µM	
3-((2-Isonicotinoylhydrazono)methyl)phenyl 4-bromobenzenesulfonate [SIH5]		33%	25 µM	
3-((2-Isonicotinoylhydrazono)methyl)phenyl 4-acetamidobenzenesulfonate [SIH11]	3.12 µM	10%	12.5 µM	
3-((2-Isonicotinoylhydrazono)methyl)phenyl 2,4,6-trimethylbenzenesulfonate [SIH3]	6.25 µM		50 µM	
3-((2-Isonicotinoylhydrazono)methyl)phenyl 4-iodobenzenesulfonate [SIH7]	6.25 µM	41%	>100 µM	
3-((2-Isonicotinoylhydrazono)methyl)phenyl 4-chlorobenzenesulfonate [SIH6]		23%	>100 µM	
3-((2-Isonicotinoylhydrazono)methyl)phenyl 2,5-dichlorobenzenesulfonate [SIH8]	3.12 µM		12.5 µM	
3-((2-Isonicotinoylhydrazono)methyl)phenyl quinoline-8-sulfonate [SIH13]	3.12 µM		12.5 µM	22%
3-((2-Isonicotinoylhydrazono)methyl)phenyl [1,1′-biphenyl]-4-sulfonate [SIH12]	3.12 µM	31%	12.5 µM	
3-((2-Isonicotinoylhydrazono)methyl)phenyl 4-nitrobenzenesulfonate [SIH9]	3.12 µM	8%	25 µM	
